Test results: patent publication US10519177B2, “Heterocyclic compounds and uses thereof” (Plexxikon Inc., priority 2013, dated 2019)
Like-named read-outs stand apart in the source and are kept apart here.

Key:
[1] = molecular target: BRD4-BD12 (1-477) (Homo sapiens (Human), UniProt O60885); assay: Alphascreen binding assay BRD4-BD12; conditions: BRD4(1 2) H4; read-out: Biochemical activity (IC50 μM) BRD4(1 2) H4
How it was run: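 In this competition format, compounds displace a biotinylated tetra-acetyl H4 peptide from E. coli-expressed human BRD4 bromodomain constructs captured on nickel chelate beads. The reaction runs at pH 7.5 with 2 mM DTT and detergent for 1 h at room temperature before a 30 min bead step.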

[2] = tested on: MV-4-11 cells; assay: Oncology cell growth assay MV-4-11 (CellTiter Glo); assay type: cell-based; conditions: Homo sapiens, MV4-11, 72 h, read-out: Cell activity (IC50 μM) MV-4-11 3d-Growth
How it was run: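 Growth read by CellTiter Glo luminescence after 72 h compound treatment of MLL-AF4-bearing MV-4-11 cells (3000/well). Titration: 8 points, 1:3 steps, maximum 10 μM, 0.2% DMSO final. Data normalized to DMSO wells, four-parameter fit gives pIC50.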

[3] = tested on: bromodomain; assay: at least one of the bromodomain cell assays of Example 57; assay type: cell-based; conditions: at least one of the bromodomain cell assays described in Example 57; read-out: IC50 in at least one of the bromodomain cell assays

SMILES	IC50 [1] [µM]	IC50 ([2]; MV-4-11, 3d growth) [µM]	IC50 [3] [µM]	IC50 [2] [µM]
Cc1noc(C)c1-c1cnc2c(-c3ccc(NC(=O)NC4CC4)cc3)cn(CC3CCC(F)(F)CC3)c2c1 [P-0562, 1-cyclopropyl-3-[4-[1-[(4,4-difluorocyclohexyl)methyl]-6-(3,5-dimethylisoxazol-4-yl)pyrrolo[3,2-b]pyridin-3-yl]phenyl]urea]	< 1	< 1	< 10	–
Cc1nnn(C)c1-c1cnc2c(-c3cnn(C)c3)cn(CC3(F)CCC(F)(F)CC3)c2c1 [P-0424, 6-(3,5-dimethyltriazol-4-yl)-3-(1-methylpyrazol-4-yl)-1-[(1,4,4-trifluorocyclohexyl)methyl]pyrrolo[3,2-b]pyridine]	< 1	–	< 10	< 1
Cc1noc(C)c1-c1cnc2c(-c3ccc(C(=O)O)c(O)c3)cn(CC3CCC(F)(F)CC3)c2c1 [P-0487, 4-[1-[(4,4-difluorocyclohexyl)methyl]-6-(3,5-dimethylisoxazol-4-yl)pyrrolo[3,2-b]pyridin-3-yl]-2-hydroxy-benzoic acid]	< 1	< 1	< 10	–
Cc1noc(C)c1-c1cnc2c(-c3ccc(C(=O)O)cc3)cn(CC3CC(F)(F)C3)c2c1 [P-0432, 4-[1-[(3,3-difluorocyclobutyl)methyl]-6-(3,5-dimethylisoxazol-4-yl)pyrrolo[3,2-b]pyridin-3-yl]benzoic acid]	< 1	< 1	< 10	–
CCn1cc(-c2cn(CC3CCC(F)(F)CC3)c3cc(-c4c(C)nnn4C)cnc23)cn1 [P-0427, 1-[(4,4-difluorocyclohexyl)methyl]-6-(3,5-dimethyltriazol-4-yl)-3-(1-ethylpyrazol-4-yl)pyrrolo[3,2-b]pyridine]	< 1	< 1	< 10	–
CCOC(=O)c1ccc(-c2cn([C@@H](C)c3ccccn3)c3cc(-c4c(C)noc4C)cnc23)cc1 [P-0542, ethyl 4-[6-(3,5-dimethylisoxazol-4-yl)-1-[(1S)-1-(2-pyridyl)ethyl]pyrrolo[3,2-b]pyridin-3-yl]benzoate]	< 1	< 1	< 10	–
Cc1noc(C)c1-c1cnc2c(-c3ccc(O)cc3)cn(CC3(F)CCCCC3)c2c1 [P-0523, 4-[6-(3,5-dimethylisoxazol-4-yl)-1-[(1-fluorocyclohexyl)methyl]pyrrolo[3,2-b]pyridin-3-yl]phenol]	< 1	< 1	< 10	–
[2H]C([2H])(C1CCC(F)(F)CC1)n1cc(-c2cnc(N)cn2)c2ncc(-c3c(C)noc3C)cc21 [P-0364, 5-[1-[dideuterio-(4,4-difluorocyclohexyl)methyl]-6-(3,5-dimethylisoxazol-4-yl)pyrrolo[3,2-b]pyridin-3-yl]pyrazin-2-amine]	< 1	–	< 10	< 1
Cc1noc(C)c1-c1cnc2c(-c3ccc(C(=O)O)cc3F)cn(CC3(F)CCCCC3)c2c1 [P-0468, 4-[6-(3,5-dimethylisoxazol-4-yl)-1-[(1-fluorocyclohexyl)methyl]pyrrolo[3,2-b]pyridin-3-yl]-3-fluoro-benzoic acid]	< 1	< 1	< 10	–
CCNS(=O)(=O)c1ccc(-c2cn([C@@H](C)c3ccccn3)c3cc(-c4c(C)noc4C)cnc23)cc1 [P-0556, 4-[6-(3,5-dimethylisoxazol-4-yl)-1-[(1S)-1-(2-pyridyl)ethyl]pyrrolo[3,2-b]pyridin-3-yl]-N-ethyl-benzenesulfonamide]	< 1	< 1	< 10	–
[2H]C([2H])(C1CCC(F)(F)CC1)n1cc(-c2ccc(OC)nc2)c2ncc(-c3c(C)noc3C)cc21 [P-0343, 4-[1-[dideuterio-(4,4-difluorocyclohexyl)methyl]-3-(6-methoxy-3-pyridyl)pyrrolo[3,2-b]pyridin-6-yl]-3,5-dimethyl-isoxazole]	< 1	–	< 10	< 1
Cc1noc(C)c1-c1cnc2c(-c3cccc(S(N)(=O)=O)c3)cn(CC3(F)CCCCC3)c2c1 [P-0475, 3-[6-(3,5-dimethylisoxazol-4-yl)-1-[(1-fluorocyclohexyl)methyl]pyrrolo[3,2-b]pyridin-3-yl]benzenesulfonamide]	< 1	< 1	< 10	–
Cc1noc(C)c1-c1cnc2c(-c3ccc(C#N)cc3)cn(CC3(F)CCCCC3)c2c1 [P-0457, 4-[6-(3,5-dimethylisoxazol-4-yl)-1-[(1-fluorocyclohexyl)methyl]pyrrolo[3,2-b]pyridin-3-yl]benzonitrile]	< 1	< 1	< 10	–
CC[C@H](c1ccccc1)n1cc(-c2ccc(C(=O)O)cc2)c2ncc(-c3c(C)noc3C)cc21 [P-0570, 4-[6-(3,5-dimethylisoxazol-4-yl)-1-[(1R)-1-phenylpropyl]pyrrolo[3,2-b]pyridin-3-yl]benzoic acid]	< 1	< 1	< 10	–
Cc1noc(C)c1-c1cnc2c(-c3cnn(CCF)c3)cn(CC3(F)CCCCC3)c2c1 [P-0260, 4-[1-[(1-fluorocyclohexyl)methyl]-3-[1-(2-fluoroethyl)pyrazol-4-yl]pyrrolo[3,2-b]pyridin-6-yl]-3,5-dimethyl-isoxazole]	< 1	–	< 10	< 1
Cc1noc(C)c1-c1cnc2c(-c3cccc(C(=O)O)c3)cn(CC3CCC(F)(F)CC3)c2c1 [P-0393, 3-[1-[(4,4-difluorocyclohexyl)methyl]-6-(3,5-dimethylisoxazol-4-yl)pyrrolo[3,2-b]pyridin-3-yl]benzoic acid]	< 1	–	< 10	< 1
Cc1noc(C)c1-c1cnc2c(-c3ccc(O)nc3)cn(CC3CCC(F)(F)CC3)c2c1 [P-0402, 5-[1-[(4,4-difluorocyclohexyl)methyl]-6-(3,5-dimethylisoxazol-4-yl)pyrrolo[3,2-b]pyridin-3-yl]pyridin-2-ol]	< 1	–	< 10	< 1
CNS(=O)(=O)c1ccc(-c2cn([C@@H](C)c3ccccn3)c3cc(-c4c(C)noc4C)cnc23)cc1 [P-0555, 4-[6-(3,5-dimethylisoxazol-4-yl)-1-[(1S)-1-(2-pyridyl)ethyl]pyrrolo[3,2-b]pyridin-3-yl]-N-methyl-benzenesulfonamide]	< 1	< 1	< 10	–
Cc1onc(N)c1-c1cnc2c(-c3cnn(CC(F)(F)F)c3)cn(CC3CCC(F)(F)CC3)c2c1 [P-0368, 4-[1-[(4,4-difluorocyclohexyl)methyl]-3-[1-(2,2,2-trifluoroethyl)pyrazol-4-yl]pyrrolo[3,2-b]pyridin-6-yl]-5-methyl-isoxazol-3-amine]	< 1	–	< 10	< 1
Cc1noc(C)c1-c1cnc2[nH]cc(C(O)(c3ccccn3)c3ccccn3)c2c1 [P-0545, [5-(3,5-dimethylisoxazol-4-yl)-1H-pyrrolo[2,3-b]pyridin-3-yl]-bis(2-pyridyl)methanol]	< 1	< 1	< 10	–
Cc1noc(C)c1-c1cnc2c(-c3cnn(CC(=O)O)c3)cn(CC3CCC(F)(F)CC3)c2c1 [P-0482, 3-[4-[1-[(4,4-difluorocyclohexyl)methyl]-6-(3,5-dimethylisoxazol-4-yl)pyrrolo[3,2-b]pyridin-3-yl]pyrazol-1-yl]acetic acid]	< 1	10 to 200	< 10	–
Cc1noc(C)c1-c1cnc2c(-c3cnn(C)c3)cn(CC3(F)CCC(F)(F)CC3)c2c1 [P-0381, 3,5-dimethyl-4-[3-(1-methylpyrazol-4-yl)-1-[(1,4,4-trifluorocyclohexyl)methyl]pyrrolo[3,2-b]pyridin-6-yl]isoxazole]	< 1	–	< 10	< 1
Cc1noc(C)c1-c1cnc2c(-c3ccc(C(=O)O)cc3)cn(CC3CCCCCC3)c2c1 [P-0586, 4-[1-(cycloheptylmethyl)-6-(3,5-dimethylisoxazol-4-yl)pyrrolo[3,2-b]pyridin-3-yl]benzoic acid]	< 1	< 1	< 10	–
Cc1noc(C)c1-c1cnc2c(-c3cnn(CC(F)(F)F)c3)cn(CC3CCCC3)c2c1 [P-0551, 4-[1-(cyclopentylmethyl)-3-[1-(2,2,2-trifluoroethyl)pyrazol-4-yl]pyrrolo[3,2-b]pyridin-6-yl]-3,5-dimethyl-isoxazole]	< 1	< 1	< 10	–
Cc1noc(C)c1-c1cnc2c(-c3cnn(C)c3)cn([C@@H](C)c3ccccn3)c2c1 [P-0516, 3,5-dimethyl-4-[3-(1-methylpyrazol-4-yl)-1-[(1S)-1-(2-pyridyl)ethyl]pyrrolo[3,2-b]pyridin-6-yl]isoxazole]	< 1	< 1	< 10	–
CC(=O)Nc1ccc(-c2cn(CC3(F)CCCCC3)c3cc(-c4c(C)noc4C)cnc23)cc1 [P-0496, N-[4-[6-(3,5-dimethylisoxazol-4-yl)-1-[(1-fluorocyclohexyl)methyl]pyrrolo[3,2-b]pyridin-3-yl]phenyl]acetamide]	< 1	< 1	< 10	–
Cc1noc(C)c1-c1cnc2c(-c3ccc(C(=O)O)cc3)cn(C(CC#N)C3CCCC3)c2c1 (stereo not drawn) [P-0527, 4-[1-(2-cyano-1-cyclopentyl-ethyl)-6-(3,5-dimethylisoxazol-4-yl)pyrrolo[3,2-b]pyridin-3-yl]benzoic acid]	< 1	< 1	< 10	–
